These results are taken from patent publication US12161829B2 (OCON MEDICAL LTD., priority 2020, dated 2024).

This data set deals with endometrium. The text has this:
Efforts were made to recruit an equal number of women with high endometrial thickness (>7 mm) and low endometrial thickness (<7 mm). On the day of surgery, the subject underwent a vaginal ultrasound, to re-measure the endometrial thickness, and hysteroscopy, to visualize the uterine cavity and the endometrium.
After surgery, the extracted uterus was immediately evaluated by the study pathologist for gross pathology and silver nitrate coverage of the endometrium and was later subjected to pathology (macroscopic analyses of the intra-uterine cavity and microscopic analyses of the multiple sections of the uteri) histopathological evaluations to define the extent of active material endometrium coverage and endometrial ablation.

Consider `O=[N+]([O-])[O-].[Ag+]` [silver nitrate], for which, where the note is “30 minutes in uterus, extracted uterus”, the “Staining of / spillage via the fallopian tubes” value is “No staining of the fallopian tubes”. Moreover, the Cervix findings result (histology) was “superficial silver nitrate staining, with no damage to the columnar epithelium and no pathological findings”. For the same compound, the Cauterization effect entry (overall conclusion) is “elicited the expected cauterization effect”.
